The source of these data is patent US4820715A, “Anti-emetic quinuclidinyl benzamides” (Bristol-Myers Company, priority 1987, dated 1989).

The target of test [1] is dopaminergic (D2) receptors (Rattus norvegicus, UniProt P61169). The test is described as follows: biochemical. The note with it: striatal rat brain homogenates, ^3H-spiperone, 37° C., 15 minutes; read-out: 3H-Spiperone Displacement IC50. It is filed as binding. The protocol:
Rats (150±10 g; Charles River) were decapitated, the corpus striatum dissected out and frozen on dry ice. The tissues were pooled and stored at -80° C. until used. Homogenates (Brinkmann Polytron) of the corpus striatum in cold HEPES.KOH buffer (final pH=7.4) were centrifuged at 39,000×G. The supernatant was discarded and the pellets were re-suspended in HEPES.KOH buffer and re-centrifuged as above.
Tests to determine the Inhibitory Concentration50 (IC50) of the compounds of Formula I and reference compounds versus ^3 H-spiperone were conducted as follows. Tubes containing either 100 μL of buffer mixture (for total binding), 100 μL of buffer mixture plus 100 μL of 10^-4 M D(+)-butaclamol (for blanks, i.e. non-specific binding), or 100 μL of buffer mixture containing 10^-7, 10^-6 or 10^-5 M test compound were prepared. To each were added 100 μL of a solution of ^3 H-spiperone (New England Nuclear) in buffer mixture (2000 c.p.m. in the incubation mixture) and 800 μL of the striatal tissue suspension. The tubes were then diluted to 1 mL with buffer mixture, giving a final concentration of 10^-8, 10^-7 or 10^-6 M test compound and approximately 100 pM ^3 H-spiperone. The samples were incubated at 37° C. for 15 minutes, filtered in vacuo on glass fiber filters and counted by liquid scintillation spectrometry. […] All samples were run in duplicate.

The subject of test [2] is Apomorphine-Induced Emesis. The experiment in a line: Antagonism of Apomorphine-Induced Emesis in Dogs. In kind it is in vivo, beagle dogs. As to conditions: Canis lupus familiaris, sc; s.c. 30 minutes prior to apomorphine 0.3 mg/kg; dog; read-out: Antagonism of Apomorphine-Induced Emesis in the Dog ED50. The protocol: Unfasted beagle dogs of both sexes were used as test subjects. Test compounds and apomorphine were each administered subcutaneously as aqueous solutions, with the test compound being administered 30 minutes prior to the administration of the apormorphine.
Apomorphine was administered at a dose of 0.3 mg/kg. […] All tests were run in at least two dogs.

The test system of another test is Cisplatin-Induced Emesis. The experiment in a line: Antagonism of Cisplatin-Induced Emesis in the Ferret. In kind it is in vivo, Fitch ferrets. The note with it: Mustela putorius, iv, 4 h; 3 mg/kg, i.v. × 2; read-out: Antagonism of Cisplatin-Induced Emesis in the Ferret, % Protection.
Test [3] relates to field-stimulated guinea pig ileum. The test is described as follows: Gastrokinetic Activity: contraction of field-stimulated guinea pig ileum preparations. Further details: species or system guinea pig (Hartley). As to conditions: Cavia porcellus; for EC30: effective concentration30, read-out: EC30 (95% C.L.); for EC50: effective concentration50, read-out: EC50 (95% C.L.); for minimal effective concentration: read-out: Minimum Effective Concentration.

[4] abbreviates: read-out: Average % Maximum Increase.

Chain of dopaminergic (D2) receptors (P61169 whole entry): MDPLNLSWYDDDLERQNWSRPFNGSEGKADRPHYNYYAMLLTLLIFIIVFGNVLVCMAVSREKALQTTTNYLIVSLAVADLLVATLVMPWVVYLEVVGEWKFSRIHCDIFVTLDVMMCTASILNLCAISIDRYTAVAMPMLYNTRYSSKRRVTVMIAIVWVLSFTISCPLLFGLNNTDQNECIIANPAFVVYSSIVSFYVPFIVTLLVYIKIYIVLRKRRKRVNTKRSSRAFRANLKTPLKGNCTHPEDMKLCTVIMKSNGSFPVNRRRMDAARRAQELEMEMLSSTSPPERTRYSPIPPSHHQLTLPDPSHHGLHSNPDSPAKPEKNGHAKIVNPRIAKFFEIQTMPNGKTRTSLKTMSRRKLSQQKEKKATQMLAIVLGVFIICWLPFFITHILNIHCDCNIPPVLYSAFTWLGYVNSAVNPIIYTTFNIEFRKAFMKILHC

For orientation: IC50 means the point on the concentration scale where inhibition reaches its midpoint. Usually ED50 stands for the midpoint of the dose-response relation. As usually defined, the EC30 is the concentration at which the effect reaches the 30% level. In general, EC50 refers to the concentration that produces a half-maximal response. As for `CCN(CC)CCNC(=O)c1cc(Cl)c(N)cc1OCC(N)=O` [Example 16, 4-Amino-2-(2-amino-2-oxoethoxy)-5-chloro-N-[2-(diethylamino)ethyl]benzamideAcetate Monohydrate], the 50% inhibitory concentration (IC50) in test [1] is more than 1000 nM. In test [2], the 50% effective dose (ED50) was more than 3 mg/kg. Also, in the test with Cisplatin-Induced Emesis, the inhibition in vivo at 3 mg/kg was 21%. Besides, in test [3] (at 100 μM, read-out: Average % Maximum Increase), the activation at 100 µM was 72%. Also, in test [3], the concentration for an effect of 30% (EC30) was 500 nM, the EC50 was 3700 nM and the minimal effective concentration turned out to be 0.03 µM.

Turning to `CCN(CC)CCNC(=O)c1cc(Cl)c(N)cc1OCC(=O)NNC(C)=O` [Example 37, 4-Amino-5-chloro-N-[2-(diethylamino)ethyl]-2-[2-(2-acetylhydrazino)-2-oxoethoxy]benzamide Acetate], the half-inhibitory concentration (IC50) in test [1] was more than 1000 nM. In addition, the ED50 in test [2] is more than 3 mg/kg. In the test with Cisplatin-Induced Emesis, the inhibition in vivo at 3 mg/kg was found to be 57%. The activation at 300 µM in test [3] (at 300 μM, read-out: Average % Maximum Increase) was 83%. Further, in test [3], the concentration for an effect of 30% (EC30) amounted to 720 nM and the concentration giving a half-maximal response (EC50) stood at 6600 nM.

Consider `CCN(CC)CCNC(=O)c1cc(Cl)c(N)cc1OCC[S+](C)[O-]` (stereo not drawn) [Example 21, 4-Amino-5-chloro-N-[2-(diethylamino)ethyl]-2-[2-(methylsulfinyl)ethoxy]benzamide], for which, in test [1], the half-inhibitory concentration (IC50) is more than 1000 nM. Moreover, the ED50 in test [2] is more than 3 mg/kg. Further, in the test with Cisplatin-Induced Emesis, the inhibition in vivo at 3 mg/kg came out at 49%. Moreover, the activation at 30 µM in test [3] (setting [4]) is 88%. Further, in test [3], the EC30 turned out to be 570 nM, the EC50 is 2300 nM and the minimal effective concentration turned out to be 0.1 µM.

`CCN(CC)CCNC(=O)c1cc(Cl)c(N)cc1OCC(=O)NC` [Example 40]: the IC50 in test [1] is more than 1000 nM. The ED50 in test [2] is more than 3 mg/kg. Also, the inhibition in vivo at 3 mg/kg with Cisplatin-Induced Emesis was 62%. Also, in test [3] (setting [4]), the activation at 10 µM is 56%. In test [3], the 30% effect concentration (EC30) was 900 nM, the EC50 is 5500 nM and the minimal effective concentration was 0.1 µM.

In the case of `CCN(CC)CCNC(=O)c1cc(Cl)c(N)cc1OCCCC(=O)N(CC)CC` [Example 56, 4-Amino-5-chloro-N-[2-(diethylamino)ethyl]-2-(4-diethylamino-4-oxobutoxy)benzamide], in test [1], the half-inhibitory concentration (IC50) was more than 1000 nM. Besides, in test [2], the median effective dose (ED50) was more than 3 mg/kg. The inhibition in vivo at 3 mg/kg with Cisplatin-Induced Emesis came out at 81%. In addition, the activation at 30 µM in test [3] (setting [4]) came out at 59%. Also, in test [3], the EC30 stood at 1100 nM, the EC50 was determined as 7300 nM and the minimal effective concentration was determined as 0.1 µM.

`CCN(CC)CCNC(=O)c1cc(Cl)c(N)cc1OCC(=O)NN.O.O.O` [Example 36, 4-Amino-5-chloro-N-[2-(diethylamino)ethyl]-2-(2-hydrazino-2-oxoethoxy)benzamide Trihydrate]: the IC50 in test [1] was more than 1000 nM. Further, the ED50 in test [2] is more than 3 mg/kg. The inhibition in vivo at 3 mg/kg with Cisplatin-Induced Emesis was 86%. Further, the activation at 10 µM in test [3] (setting [4]) came to 55%. Moreover, in test [3], the concentration for an effect of 30% (EC30) stood at 500 nM, the EC50 stood at 4600 nM and the minimal effective concentration turned out to be 0.1 µM.

Regarding `CCN(CC)CCNC(=O)c1cc(Cl)c(N)cc1OCC[S+]([O-])CC` (stereo not drawn) [Example 60], the IC50 in test [1] is more than 1000 nM. In addition, in test [2], the ED50 was more than 3 mg/kg. Moreover, the inhibition in vivo at 3 mg/kg in the test on Cisplatin-Induced Emesis turned out to be 52%. Moreover, the activation at 30 µM in test [3] (setting [4]) was 66%. In test [3], the concentration for an effect of 30% (EC30) was determined as 880 nM, the half-maximal effective concentration (EC50) is 4800 nM and the minimal effective concentration is 0.1 µM.
